The results in this text go back to PubChem BioAssay AID296 (DTP/NCI, 2004).

The test has as its system MX-1 breast xenograft, nude mice, tumor weight T/C. Briefly: NCI In Vivo Anticancer Drug Screen. Data for tumor model Human Mammary Carcinoma MX-1 Xenograft (intrarenal inoculation) in NU/NU Swiss (nude) mice. The following applies: endpoint: mean tumor weight change, higher = larger tumour. The essentials:
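Antitumour effect measured in vivo against vehicle controls, expressed as T/C.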
(A xenograft is tissue or cells of one species grown in another, often human tumour cells in immunodeficient mice.)

Setting [1] is: dose: 300.0 mg/kg/injection, schedule: Q04DX003 (sc), vehicle: saline with Tween-80.
Where [2] appears, read: dose: 600.0 mg/kg/injection, schedule: Q04DX003 (sc), vehicle: saline with Tween-80.
Setting [3] is: dose: 1200.0 mg/kg/injection, schedule: Q04DX003 (sc), vehicle: saline with Tween-80.
Setting [4] is: dose: 2400.0 mg/kg/injection, schedule: Q04DX003 (sc), vehicle: saline with Tween-80.
The mark [5] stands for this setting: dose: 100.0 mg/kg/injection, schedule: Q01DX010 (sc), vehicle: saline with Tween-80.
Setting [6] is: dose: 400.0 mg/kg/injection, schedule: Q01DX010 (sc), vehicle: saline with Tween-80.
Where [7] appears, read: dose: 300.0 mg/kg/injection, schedule: Q04DX003 (sc), vehicle: saline.
[8] abbreviates: dose: 600.0 mg/kg/injection, schedule: Q04DX003 (sc), vehicle: saline.
Setting [9] is: dose: 1200.0 mg/kg/injection, schedule: Q04DX003 (sc), vehicle: saline.
[10] abbreviates: dose: 2400.0 mg/kg/injection, schedule: Q04DX003 (sc), vehicle: saline.
The mark [11] stands for this setting: dose: 100.0 mg/kg/injection, schedule: Q01DX010 (sc), vehicle: Klucel (hydroxypropylcellulose) (HPC).
Where [12] appears, read: dose: 200.0 mg/kg/injection, schedule: Q01DX010 (sc), vehicle: Klucel (hydroxypropylcellulose) (HPC).

Several values for one entry are separate records, joined by “and”; a condition that tells them apart may be missing. Equal entries are not always repeated. Results filed as inconclusive are left out.

As for `CN1C(=O)C(=Cc2ccc(O)cc2)C(=O)N(C)C1=O`, the T/C under setting [1] is 96 % of control, the T/C under setting [2] is 92 % of control, the T/C under setting [3] is 99 % of control and the T/C under setting [4] was 107 % of control.
Consider `CCOC(=O)CNC(=O)CCCCSc1ncnc2nc[nH]c12`, for which the T/C is 109 % of control under setting [3] and 86 % of control under setting [4].
As for `CCOC(=O)c1[nH]c2cccc3c2c1CC(Br)C3=O` (stereo not given), the T/C was 86 % of control under setting [1], 100 % of control under setting [2], 73 % of control under setting [3] and 94 % of control under setting [4].
With `O=C(O)CC(NC(=O)CP(=O)(O)O)C(=O)O` (stereo not given), the T/C by setting is: (dose: 50.0 mg/kg/injection, schedule: Q01DX010 (sc), vehicle: saline) 117 % of control; (dose: 100.0 mg/kg/injection, schedule: Q01DX010 (sc), vehicle: saline) 25 % of control and 34 % of control.
As to `O=C1c2cccc3cc([N+](=O)[O-])cc(c23)C(=O)N1CCN1CCCC1`, the T/C by setting is: (dose: 18.0 mg/kg/injection, schedule: Q04DX003 (sc), vehicle: saline with Tween-80) 120 % of control; (dose: 36.0 mg/kg/injection, schedule: Q04DX003 (sc), vehicle: saline with Tween-80) 96 % of control; (dose: 72.0 mg/kg/injection, schedule: Q04DX003 (sc), vehicle: saline with Tween-80) 85 % of control.
Turning to `OC1CCCC2CCC[N-]C12.OC1CCCC2CCC[N-]C12.[Mn+2]` (stereo not given), the T/C is, setting by setting: (dose: 300.0 mg/kg/injection, schedule: Q04DX003 (sc), vehicle: Klucel (hydroxypropylcellulose) (HPC)) 87 % of control; (dose: 600.0 mg/kg/injection, schedule: Q04DX003 (sc), vehicle: Klucel (hydroxypropylcellulose) (HPC)) 108 % of control; (dose: 1200.0 mg/kg/injection, schedule: Q04DX003 (sc), vehicle: Klucel (hydroxypropylcellulose) (HPC)) 65 % of control; (dose: 2400.0 mg/kg/injection, schedule: Q04DX003 (sc), vehicle: Klucel (hydroxypropylcellulose) (HPC)) 73 % of control.
For `CC[C@@]1(O)C(=O)OCc2c1cc1n(c2=O)Cc2cc3cc(O)ccc3nc2-1`, the T/C runs as follows: (dose: 8.0 mg/kg/injection, schedule: Q04DX003 (sc), vehicle: saline) -98 % of control; (dose: 16.0 mg/kg/injection, schedule: Q04DX003 (sc), vehicle: saline) -100 % of control; (dose: 32.0 mg/kg/injection, schedule: Q04DX003 (sc), vehicle: saline) -100 % of control; (dose: 32.0 mg/kg/injection, schedule: Q04DX003 (sc), vehicle: suspension in saline) -100 % of control; (dose: 64.0 mg/kg/injection, schedule: Q04DX003 (sc), vehicle: saline) -100 % of control; (dose: 64.0 mg/kg/injection, schedule: Q04DX003 (sc), vehicle: suspension in saline) -100 % of control. Where the note is “dose: 128.0 mg/kg/injection, schedule: Q04DX003 (sc), vehicle: suspension in saline”, the T/C was -100 % of control.
With `COc1ccc2c(c1)CCn1c(C)c(COC(=O)NC(C)C)c(COC(=O)NC(C)C)c1-2`, the T/C (dose: 150.0 mg/kg/injection, schedule: Q04DX003 (sc), vehicle: distilled water + Tween-80) was 6 % of control; the T/C (dose: 300.0 mg/kg/injection, schedule: Q04DX003 (sc), vehicle: distilled water + Tween-80) is 3 % of control; the T/C (dose: 600.0 mg/kg/injection, schedule: Q04DX003 (sc), vehicle: distilled water + Tween-80) was -100 % of control; the T/C (dose: 1200.0 mg/kg/injection, schedule: Q04DX003 (sc), vehicle: distilled water + Tween-80) is -100 % of control.
For `O=C(C1CO1)C(Cl)(Cl)Cl` (stereo not given), the T/C (dose: 150.0 mg/kg/injection, schedule: Q04DX003 (sc), vehicle: saline) is 64 % of control.
As for `CN(C)C1C(=O)C(C(=O)NP(=O)(NCCCO)N(CCCl)CCCl)=C(O)C2(O)C(=O)C3=C(O)c4c(O)cccc4C(C)(O)C3CC12` (stereo not given), the T/C was -100 % of control (dose: 150.0 mg/kg/injection, schedule: Q04DX003 (sc), vehicle: saline with Tween-80); -98 % of control under setting [1]; -100 % of control under setting [2].
For the compound `O=Cc1ccc(C(Cl)(Cl)Cl)cc1`, the T/C is 182 % of control under setting [5]; 120 % of control under setting [6]; 46 % of control (dose: 800.0 mg/kg/injection, schedule: Q01DX010 (sc), vehicle: saline with Tween-80).
As to `C=CCc1cn(C2CC(O)C(CO)O2)c(=O)[nH]c1=O` (stereo not given), the T/C runs as follows: under setting [7], 121 % of control; under setting [8], 114 % of control; under setting [9], 93 % of control; under setting [10], 97 % of control.
As to `CCOC(=O)/N=[N+](\[O-])c1ccccc1`, under “dose: 37.5 mg/kg/injection, schedule: Q04DX003 (ip), vehicle: saline with Tween-80”, the T/C is 110 % of control.
In the case of `CCOC(=O)c1ccc(NC(=O)Nc2nccs2)cc1`, the T/C is, setting by setting: (dose: 25.0 mg/kg/injection, schedule: Q01DX010 (sc), vehicle: saline with Tween-80) 100 % of control; under setting [5], 97 % of control and 108 % of control; (dose: 200.0 mg/kg/injection, schedule: Q01DX010 (sc), vehicle: saline with Tween-80) 63 % of control; under setting [6], 186 % of control.
As to `CC(C)(C[NH-])C[NH-].[Cl][Pt+2][Cl]`, the T/C is, setting by setting: (dose: 1.5 mg/kg/injection, schedule: Q04DX003 (ip), vehicle: other) 117 % of control; (dose: 1.5 mg/kg/injection, schedule: Q04DX003 (ip), vehicle: water) 4 % of control; (dose: 3.0 mg/kg/injection, schedule: Q04DX003 (ip), vehicle: other) 112 % of control; (dose: 3.0 mg/kg/injection, schedule: Q04DX003 (ip), vehicle: water) -58 % of control; (dose: 6.0 mg/kg/injection, schedule: Q04DX003 (ip), vehicle: water) -84 % of control.
Consider `CC(=O)OCC1(C)NC(=O)c2ccccc2O1` (stereo not given), for which the T/C under setting [1] was 108 % of control, the T/C under setting [2] is 108 % of control, the T/C under setting [3] was 156 % of control and the T/C under setting [4] was 85 % of control.
As to `CCC(=O)Sc1ccccc1C(=O)Nc1ccc(Cl)cc1`, the T/C under setting [1] is 63 % of control, the T/C under setting [2] is 75 % of control, the T/C under setting [3] is 58 % of control and the T/C under setting [4] is 69 % of control.
For the compound `C/C(=C\c1ccccc1)[N+](=O)[O-]`, the T/C (dose: 25.0 mg/kg/injection, schedule: Q01DX010 (sc), vehicle: Klucel (hydroxypropylcellulose) (HPC)) was 38 % of control; the T/C (dose: 50.0 mg/kg/injection, schedule: Q01DX010 (sc), vehicle: Klucel (hydroxypropylcellulose) (HPC)) is 88 % of control; the T/C under setting [11] was 45 % of control and 53 % of control; the T/C under setting [12] is 55 % of control and 59 % of control.
As for `CCCCC1CCCCCCc2[nH]c(/C=C3\N=C(c4ccc[nH]4)C=C3OC)cc21` (stereo not given), the T/C runs as follows: (dose: 4.0 mg/kg/injection, schedule: Q04DX003 (sc), vehicle: saline with Tween-80) 82 % of control; (dose: 8.0 mg/kg/injection, schedule: Q04DX003 (sc), vehicle: saline with Tween-80) 107 % of control; (dose: 16.0 mg/kg/injection, schedule: Q04DX003 (sc), vehicle: saline with Tween-80) 105 % of control; (dose: 32.0 mg/kg/injection, schedule: Q04DX003 (sc), vehicle: saline with Tween-80) 80 % of control.
For `O=C1C=C(C2OC(CO)C(O)C2O)C(=O)N1` (stereo not given), the T/C reads like this: (dose: 6.25 mg/kg/injection, schedule: Q01DX010 (sc), vehicle: saline) 79 % of control; (dose: 12.5 mg/kg/injection, schedule: Q01DX010 (sc), vehicle: saline) 123 % of control.
As for `CN(C)N=Nc1ccc(S(N)(=O)=O)cc1`, the T/C was 75 % of control under setting [11]; 47 % of control under setting [12]; 42 % of control (dose: 400.0 mg/kg/injection, schedule: Q01DX010 (sc), vehicle: Klucel (hydroxypropylcellulose) (HPC)).
As for `NC(CCC(=O)NC(CS)C(=O)NCC(=O)O)C(=O)O` (stereo not given), the T/C under setting [7] is 87 % of control, the T/C under setting [8] is 93 % of control, the T/C under setting [9] was 104 % of control and the T/C under setting [10] is 89 % of control.
With `CC1(C)CC23C4COC(=O)C2CCC1C3CC4=O` (stereo not given), the T/C (dose: 300.0 mg/kg/injection, schedule: Q04DX003 (sc), vehicle: DMSO) was 108 % of control; the T/C (dose: 600.0 mg/kg/injection, schedule: Q04DX003 (sc), vehicle: DMSO) is 82 % of control; the T/C (dose: 1200.0 mg/kg/injection, schedule: Q04DX003 (sc), vehicle: DMSO) is 104 % of control; the T/C (dose: 2400.0 mg/kg/injection, schedule: Q04DX003 (sc), vehicle: DMSO) is 74 % of control.
